Source: patent publication US20220324862A1, “PYRIDOPYRIMIDINONE COMPOUNDS” (Acerand Therapeutics (USA) Limited, priority 2021, published 2022)
pIC50: −log10 of the molar value.

Molecular target: T1, protein-protein interaction between SOS1 and KRAS-G12D (Homo sapiens, UniProt Q07889)
T1 construct: The purified GST-SOS1 catalytic domain (residues 564-1049) was first diluted in assay buffer; made in house; host or cells: E. coli BL21 (DE3) for SOS1; E. coli BL21 carrying a BirA plasmid for KRAS-G12D
T1 sequence (Q07889 564-1049): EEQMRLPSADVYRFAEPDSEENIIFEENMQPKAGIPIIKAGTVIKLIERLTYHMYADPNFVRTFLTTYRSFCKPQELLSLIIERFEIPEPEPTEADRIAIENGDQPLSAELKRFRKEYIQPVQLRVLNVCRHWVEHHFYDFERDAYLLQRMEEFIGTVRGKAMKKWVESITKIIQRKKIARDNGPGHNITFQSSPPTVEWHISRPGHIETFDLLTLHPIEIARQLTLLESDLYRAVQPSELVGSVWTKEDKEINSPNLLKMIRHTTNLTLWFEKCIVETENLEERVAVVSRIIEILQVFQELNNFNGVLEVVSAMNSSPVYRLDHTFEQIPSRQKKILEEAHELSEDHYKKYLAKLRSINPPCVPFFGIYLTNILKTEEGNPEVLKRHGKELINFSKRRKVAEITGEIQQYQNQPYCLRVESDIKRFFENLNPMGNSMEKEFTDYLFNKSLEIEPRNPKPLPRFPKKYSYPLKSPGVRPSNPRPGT
Assay: HTRF Based Protein-Protein Interaction Assay
Assay type: binding
Details: HTRF; GST-SOS1 2.5 nM, KRAS-G12D 100 nM, GDP 10 uM; read-out: IC50 value, inhibition of SOS1/KRAS-G12D protein-protein interaction
Text: A KRAS-G12D and SOS1 binding/interaction assay was designed to measure the interaction between KRAS-G12D and SOS1 proteins. Utilizing HTRF (Homogeneous Time-Resolved Fluorescence) technology, the assay enabled simple and rapid characterization of compound and protein interaction in a high throughput format. This assay was used to examine potency of the compounds in inhibiting the protein-protein interaction between SOS1 and KRAS-G12D. […] Low IC50 values are indicative of high potency of the SOS1 inhibitor compound to disrupt SOS1 and Kras-G12D interaction.
Protein Expression and Purification. The corresponding gene sequence to human SOS1 (residues 564-1049, UniProt ID: Q07889; SEQ ID NO: 2) was synthesized and fused in frame with GST expression vector. After the desired sequence was confirmed, plasmid containing the sequence was transformed into the E. coli strain BL21 (DE3). Bacteria were growing at 37° C. in LB media containing 50 μg/ml Kanamycin to give OD600 of 0.6-0.8. Then 0.2 mM IPTG was added to induce protein expression for 16 hours at 17° C. Bacteria were harvested by centrifugation and stored at −80° C. Bacteria pellets were resuspended in lysis buffer (25 mM Tris-HCl, 500 mM NaCl, 2 mM DTT, 2.3% sucrose, 0.3% dextran-10, 1 mM PMSF, pH 7.5) and lysed using high-pressure homogenizer. The lysate was cleared by centrifugation for 30 minutes (12000 rpm at 4° C.). The supernatant containing GST-SOS1 fragment was purified sequentially through Glutathione column and gel filtration (Hiload 16/600 Superdex […] column, Cytiva). The purified GST-SOS1 fragment was confirmed by SDS-PAGE and stored in 25 mM Tris-HCl, 100 mM NaCl, 1 mM DTT, 2.3% sucrose, 0.3% dextran-10, pH 7.5 at −80° C.
Kras-G12D Protein Purification. The sequence corresponding to human KRAS-G12D (residues 1-169, UniProt P01116-2; SEQ ID NO: 1) was synthesized and fused in frame with His-AVI-TEV vector. The plasmid was transformed into the E. coli strain BL21 (containing a plasmid that can generate BirA enzyme). Bacteria were growing at 37° C. in TB media containing 100 μg/ml ampicillin and 50 μg/ml Kanamycin to give OD600 of 0.6-0.8. The 0.5 mM IPTG and 50 mg/l biotin were added to induce protein expression for 16 hours at 25° C. Bacteria were harvested by centrifugation and stored at −80° C. Bacteria pellets were re-suspended in lysis buffer (20 mM Tris-HCl, 500 mM NaCl, 5 mM MgCl2, 2 mM […], 5% glycerol, pH 8.0) and lysed using high-pressure homogenizer. The lysate was cleared by centrifugation for 30 minutes (12000 rpm at 4° C.). The supernatant containing HIS-AVI-TEV-KRAS-G12D fragment was purified sequentially through Ni-NTA column (SMART), Streptactin column (SMART), and gel filtration (Hiload 16/600 Superdex 75 pg, GE). The purified HIS-AVI-TEV-KRAS-G12D fragment was confirmed by SDS-PAGE and stored in 50 mM HEPES-NaOH, 100 mM NaCl, 1 mM DTT, 5 mM MgCl2, pH 7.5 at −80° C.
Protein-Protein Interaction Assay. An assay buffer containing 50 mM HEPES, pH 7.5, 50 mM NaCl, 0.01% Brij-35, 1 mM TCEP, 0.1% BSA was prepared, and concentration series of test compounds were generated spanning from 0.5 nM to 10 μM over 10 3-fold serial dilutions in a 384-well assay plate at a volume of 20 pL. The purified GST-SOS1 catalytic domain (residues 564-1049) was first diluted in assay buffer and 5 μl of SOS1 (final concentration 2.5 nM in assay mixture) was directly dispensed into compound plates. After a spin down at 1000 RPM for 30 seconds, the SOS1/compound mixture was incubated at 25° C. for 15 minutes to allow the reaction between SOS1 and the compound. A KRAS-G12D mixture was prepared by incubation of avi-tagged Kras-G12D (residue 1-169) and GDP in assay buffer containing 10 mM MgCl2 at room temperature for 10 minutes. A KRAS-G12D and GDP mixture (5 μL) was added to the assay plate (final KRAS-G12D was 100 nM and GDP was 10 uM). The plate was centrifuged at 1000 rpm for 30 sec and incubated at 25° C. for 60 minutes. […]

| pIC50 | Structure (SMILES) |
| --- | --- |
| 6.70 to 7.00 | C#C[C@@H](Nc1nc(C)nc2cc(=O)n(N[C@H]3CCOC3)cc12)c1cccc(C(F)F)c1C [Compound 16, 4-(((R)-1-(3-(difluoromethyl)-2-methylphenyl)prop-2-yn-1-yl)amino)-2-methyl-6-(((S)-tetrahydrofuran-3-yl)amino)pyrido[4,3-d]pyrimidin-7(6H)-one] |
| > 7.00 | C#C[C@@H](Nc1nc(C)nc2cc(=O)n(C3(C)CC3)cc12)c1cccc(C(F)(F)F)c1C [Compound 18, (R)-2-methyl-4-((1-(2-methyl-3-(trifluoromethyl)phenyl)prop-2-yn-1-yl)amino)-6-(1-methylcyclopropyl)pyrido[4,3-d]pyrimidin-7(6H)-one] |
| > 7.00 | C#C[C@@H](Nc1nc(C)nc2c(Br)c(=O)n(C3(C(F)F)CC3)cc12)c1cccc(C(F)F)c1C [Compound 39, (R)-8-bromo-4-((1-(3-(difluoromethyl)-2-methylphenyl)prop-2-yn-1-yl)amino)-6-(1-(difluoromethyl)cyclopropyl)-2-methylpyrido[4,3-d]pyrimidin-7(6H)-one] |
| > 7.00 | C#C[C@@H](Nc1nc(C)nc2cc(=O)n(C3(C(F)F)CC3)cc12)c1cccc(C#N)c1F [Compound 42, (R)-3-(1-((6-(1-(difluoromethyl)cyclopropyl)-2-methyl-7-oxo-6,7-dihydropyrido[4,3-d]pyrimidin-4-yl)amino)prop-2-yn-1-yl)-2-fluorobenzonitrile] |
| > 7.00 | C#C[C@@H](Nc1nc(C)nc2c(C)c(=O)n(C3(C)CC3)cc12)c1cccc(C(F)(F)F)c1C [Compound 28, (R)-2,8-dimethyl-4-((1-(2-methyl-3-(trifluoromethyl)phenyl)prop-2-yn-1-yl)amino)-6-(1-methylcyclopropyl)pyrido[4,3-d]pyrimidin-7(6H)-one] |
| 6.70 to 7.00 | C#C[C@@H](Nc1nc(C)nc2cc(=O)n(C3(C(F)F)CC3)cc12)c1cccc(Br)c1F [Compound 41, (R)-4-((1-(3-bromo-2-fluorophenyl)prop-2-yn-1-yl)amino)-6-(1-(difluoromethyl)cyclopropyl)-2-methylpyrido[4,3-d]pyrimidin-7(6H)-one] |
| > 7.00 | C#C[C@@H](Nc1nc(C)nc2cc(=O)n(C3CC4(C3)CN(C)C4)cc12)c1cccc(C(F)F)c1C [Compound 38, (R)-4-((1-(3-(difluoromethyl)-2-methylphenyl)prop-2-yn-1-yl)amino)-2-methyl-6-(2-methyl-2-azaspiro[3.3]heptan-6-yl)pyrido[4,3-d]pyrimidin-7(6H)-one] |
| > 7.00 | C#C[C@@H](Nc1nc(C)nc2cc(=O)n(C3(C)CC3)cc12)c1cccc(C(C)(F)F)c1F [Compound 19, (R)-4-((1-(3-(1,1-difluoroethyl)-2-fluorophenyl)prop-2-yn-1-yl)amino)-2-methyl-6-(1-methylcyclopropyl)pyrido[4,3-d]pyrimidin-7(6H)-one] |

The remaining lines, values behind:

| Structure (SMILES) | pIC50 |
| --- | --- |
| C=C[C@@H](Nc1nc(C)nc2cc(=O)n(C3(C)CC3)cc12)c1cccc(C(F)(F)F)c1C [Compound 22, (R)-2-methyl-4-((1-(2-methyl-3-(trifluoromethyl)phenyl)allyl)amino)-6-(1-methylcyclopropyl)pyrido[4,3-d]pyrimidin-7(6H)-one] | > 7.00 |
| C#C[C@@H](Nc1nc(C)nc2c(F)c(=O)n(C3(C(F)F)CC3)cc12)c1cccc(C(F)(F)F)c1C [Compound 14, (R)-6-(1-(difluoromethyl)cyclopropyl)-8-fluoro-2-methyl-4-((1-(2-methyl-3-(trifluoromethyl)phenyl)prop-2-yn-1-yl)amino)pyrido[4,3-d]pyrimidin-7(6H)-one] | > 7.00 |
| C#C[C@@H](Nc1nc(C)nc2cc(=O)n(C3(C(F)F)CC3)cc12)c1cccc(C(C)(F)F)c1F [Compound 25, (R)-4-((1-(3-(1,1-difluoroethyl)-2-fluorophenyl)prop-2-yn-1-yl)amino)-6-(1-(difluoromethyl)cyclopropyl)-2-methylpyrido[4,3-d]pyrimidin-7(6H)-one] | > 7.00 |
| C#C[C@@H](Nc1nc(C)nc2cc(=O)n(C3CC4(CNC4)C3)cc12)c1cccc(C(F)F)c1C [Compound 37, (R)-4-((1-(3-(difluoromethyl)-2-methylphenyl)prop-2-yn-1-yl)amino)-2-methyl-6-(2-azaspiro[3.3]heptan-6-yl)pyrido[4,3-d]pyrimidin-7(6H)-one] | > 7.00 |
| C#C[C@@H](Nc1nc(C)nc2cc(=O)n(C3(C#C)CC3)cc12)c1cccc(C(F)F)c1F [Compound 26, (R)-4-((1-(3-(difluoromethyl)-2-fluorophenyl)prop-2-yn-1-yl)amino)-6-(1-ethynlcyclopropyl)-2-methylpyrido [4,3-d]pyrimidin-7(6H)-one] | > 7.00 |
| C#C[C@@H](Nc1nc(C)nc2cc(=O)n(C3(C#C)CC3)cc12)c1cccc(C(F)(F)F)c1C [Compound 5, (R)-6-(1-ethynylcyclopropyl)-2-methyl-4-((1-(2-methyl-3-(trifluoromethyl)phenyl)prop-2-yn-1-yl)amino)pyrido[4,3-d]pyrimidin-7(6H)-one] | > 7.00 |
